The values that follow are results of earlier work, collected in patent US7678905B2, “Aminotetrahydropyrans as dipeptidyl peptidase-IV inhibitors for the treatment or prevention of diabetes” (Merck Sharp & Dohme Corp., priority 2006, dated 2010).

The test system of series [1] is GRF degradation in plasma.
The test system of series [2] is hematopoiesis. The note with it: mouse, cyclophosphamide-induced neutropenia.
Series [3] relates to cardiac allograft. The note with it: rats; survival doubled from day 7.

Turning to diprotin A, the “degradation of GRF to GRF[3-44] in plasma” value in series [1] is on record as “prevented”.
With `CC(C)[C@H](N)C(=O)N1CCC[C@H]1B(O)O` [Val-Boro-Pro], the effect on hematopoiesis result in series [2] is listed as “stimulated hematopoiesis”.
Regarding `CC(C)N1CCC(c2ccccc2)(c2ccccc2)CC1` [Prodipine, Pro-Pro-diphenyl-phosphonate], the cardiac allograft survival in series [3] is on record as 14 day.
